Experimental data as given in patent US20160008470A1, “STORAGE-STABLE COMPOSITIONS OF GLYCEROL MONOALKYL ETHERS” (AIR LIQUIDE SANTE (INTERNATIONAL), priority 2000, published 2016).
Counter-ions that a name gives are not always drawn. One block for each compound: values may come before it.

Legend:
Hazen colour number = format: physicochemical
[1] = Appearance of the composition; format: physicochemical
Description: n.c.=no change, d.=days, m.=months, w.=weeks, y.=years, n.d.=not detectable, cl=clear, c=colourless, kr=crystals, yl=yellowish, S.=start of the investigation.
(§1) The peroxide number of compositions of Sensiva® SC 50 and Lipacide e8G salts was compared with the stability of mixtures of Sensiva® SC 50 and other 30 salts.

[2] = Peroxide number (PON) by titration with sodium thiosulphate; format: physicochemical; conditions: for peroxide number as a function of time: Example 2, salt solution added to Sensiva SC 50
Procedure: The peroxide number (PON) gives the amount peroxide in milliequivalents of active oxygen which is present in 1000 g of substance, determined in accordance with the method below. • 5.00 g of substance are weighed into a 250 ml Erlenmeyer flask with ground-glass stopper and dissolved in 30 ml of a mixture of 2 parts by volume of chloroform R and 3 parts by volume of acetic acid 98% R with shaking. […] Following the addition of 5 ml of starch solution R, the titration is continued with vigorous shaking until the blue coloration disappears (n1 ml of 0.01 N sodium thiosulphate solution). A control experiment is carried out under the same conditions (n2 ml of 0.01 N sodium thiosulphate solution). For this, at most 0.1 ml of 0.01 N sodium thiosulphate solution must be consumed.
The peroxide number is calculated as follows: […]
where m is the initial weight of the substance in grams.
The method is explained in more detail in DAB 9-Kornrnentar [German Pharmacopoeia 9 Commentary] (K. Hartke, E. Mutschler, Editor, Wissenschaftliche Verlagsgesellschaft mbH Stuttgart, 9th edition 1986).
as §1

[3] = Merckoquant peroxide test (ppm of H2O2) during storage at room temperature; conditions: for ppm of H2O2: storage at room temperature; for stabilizing effect: 0.05% by weight of the antioxidant; for stabilization of the glycerol monoalkyl ethers over a long period (peroxides, neck-in effect): added to Sensiva SC 50, storage at room temperature, Table 1
[4] = Appearance of the storage bottle (neck-in effect); format: physicochemical; conditions: for Appearance of the bottle: Example 1, storage at room temperature
[5] = pH of 50% strength slurry in demineralized water, Merck pH indicator strips; format: physicochemical; conditions: storage at room temperature
Description: The pH of the anhydrous solutions is given as the value which a 50% strength slurry of the respective anhydrous solution in demineralized water has, determined using Merck® pH indicator strips.

[6] = Example 2, after storage, time not printed (line below the 2 y. 2 m. lines)
[7] = Example 2, start of the investigation

Hazen colour number (Hazen colour number; Example 1, storage at room temperature, 8 w.): <5
Hazen colour number (Hazen colour number; [6]): 0
Appearance [1, 6]: cl c
Appearance S. [1, 7]: cl c
PON 2 y. 11 m. ([2]; Example 1, storage at room temperature, 2 y. 11 m., n.d.=not detectable): 25.3 milliequivalents of active oxy
PONS. [2, 7]: 10 milliequivalents of active oxy
PON ([2]; Example 2, storage 2 y. 2 m.): 5-10 milliequivalents of active oxy
PON ([2]; Example 2, storage 6 m.): 20 milliequivalents of active oxy
PON ([2]; Example 2, storage 6 w.): 25 milliequivalents of active oxy
PON ([2]; Example 2, storage 11 w.): 25 milliequivalents of active oxy
PON ([2]; Example 2, storage 4 d.): 10 milliequivalents of active oxy
PON ([2]; Example 2, storage 9 d.): 10-25 milliequivalents of active oxy
ppm of H2O2 ([3]; 2 m., listed as A): 2-5 ppm
ppm of H2O2 ([3]; 2 w., listed as A): 2-5 ppm
ppm of H2O2 ([3]; 2 y., listed as A): 10-25 ppm
ppm of H2O2 ([3]; 3 m., listed as A): 2-5 ppm
ppm of H2O2 ([3]; 4 m., listed as A): 5 ppm
ppm of H2O2 ([3]; 5 m., listed as A): 5 ppm
ppm of H2O2 ([3]; 6.5 m., listed as A): 5 ppm
ppm of H2O2 ([3]; 7 w., listed as A): 2-5 ppm
ppm of H2O2 ([3]; 8 w., listed as A): 2-5 ppm
ppm of H2O2 ([3]; 8.5 m., listed as A): 5 ppm
ppm of H2O2 ([3]; 11 m., listed as A): 10 ppm
ppm of H2O2 ([3]; 7 d., listed as A): 2 ppm
ppm of H2O2 ([3]; 9 d., listed as A): 2 ppm
Appearance of the bottle ([4]; 2 y. 11 m., listed as A): consider-
Appearance of the bottle ([4]; 2 y., listed as A): neck in
PE bottle ([4]; Example 2, storage 2 y. 2 m.): considerable
SMILES: CCCCC(CC)COCC(O)CO (stereo not shown) [Experiment A, 3-[(2-ethylhexyl)oxy]-1,2-propanediol]
development of the peroxide content in stored preparations ([3]; Table 1, storage): chaotic development of the peroxide number

SMILES: CCCCCCCC(=O)NCC(=O)O [Lipacide C8G sodium salts, N-octanoylglycine]
peroxide number as a function of time [2]: the peroxide number decreases as a function of time
neck-in effect ([4]; Example 2, salt solution added to Sensiva SC 50): the neck-in effect is avoided

SMILES: O=C([O-])CC(O)(CC(=O)[O-])C(=O)[O-].[Na+].[Na+].[Na+] [sodium citrate]
peroxide number as a function of time [2]: could not be achieved

stabilizing effect [3]: exhibit the stabilizing effect
SMILES: Cc1cc(C(C)(C)C)c(O)c(C(C)(C)C)c1 [BHT, 2,6-di-tert-butyl-p-cresol]
stabilization of the glycerol monoalkyl ethers over a long period (peroxides, neck-in effect) [3]: stabilize the glycerol monoalkyl ethers over a long period

SMILES: O=S(=O)([O-])[O-].[Na+].[Na+] [sodium sulphate]
peroxide number as a function of time [2]: could not be achieved

stabilizing effect [3]: exhibit the stabilizing effect
SMILES: CC(C)(CO)[C@@H](O)C(=O)NCCCO [dexpanthenol]
stabilization of the glycerol monoalkyl ethers over a long period (peroxides, neck-in effect) [3]: stabilize the glycerol monoalkyl ethers over a long period

PON S. ([2]; Example 1, start of the investigation): 0.5 milliequivalents of active oxy
pH ([5]; 2 m.): 3
pH ([5]; 2 w.): 3
pH ([5]; 3 w.): 3
pH ([5]; 4 w.): 3
pH ([5]; 5 w.): 3
pH ([5]; 6 w.): 3
pH ([5]; 7 w.): 3
pH ([5]; 8 w.): 3
pH ([5]; 7 d.): 3
pH ([5]; 9 d.): 3
ppm of H2O2 ([3]; 1 y.): 10 ppm
ppm of H2O2 ([3]; 2 m., listed as A(Alu)): 25 ppm
ppm of H2O2 ([3]; 2 w., listed as A(Alu)): 2 ppm
ppm of H2O2 ([3]; 2 y., listed as A(Alu)): 0 ppm
ppm of H2O2 ([3]; 3 m., listed as A(Alu)): 25-50 ppm
ppm of H2O2 ([3]; 3 w.): 2-5 ppm
ppm of H2O2 ([3]; 4 m., listed as A(Alu)): 25-50 ppm
ppm of H2O2 ([3]; 4 w.): 2-5 ppm
ppm of H2O2 ([3]; 5 m., listed as A(Alu)): 50 ppm
ppm of H2O2 ([3]; 5 w.): 2-5 ppm
ppm of H2O2 ([3]; 6 w.): 2-5 ppm
ppm of H2O2 ([3]; 6.5 m., listed as A(Alu)): 50 ppm
ppm of H2O2 ([3]; 7 w., listed as A(Alu)): 5 ppm
ppm of H2O2 ([3]; 8 w., listed as A(Alu)): 5 ppm
ppm of H2O2 ([3]; 8.5 m., listed as A(Alu)): 25-50 ppm
ppm of H2O2 ([3]; 11 m., listed as A(Alu)): 10-25 ppm
ppm of H2O2 ([3]; 14 m.): 10 ppm
ppm of H2O2 ([3]; 16 m.): 10 ppm
ppm of H2O2 ([3]; 7 d., listed as A(Alu)): 0.5 ppm
ppm of H2O2 ([3]; 9 d., listed as A(Alu)): 0.5-1 ppm
Appearance of the bottle ([4]; 2 y. 11 m., listed as A(Alu)): n.c.
Appearance of the bottle ([4]; 2 y., listed as A(Alu)): n.c.
SMILES: CCCCC(CC)COCC(O)CO (stereo not shown) [Experiment A(Alu), 3-[(2-ethylhexyl)oxy]-1,2-propanediol]

SMILES: COc1ccc(O)c(C(C)(C)C)c1 [BHA, 3-tert-butyl-4-hydroxyanisole]
stabilizing effect [3]: exhibit the stabilizing effect
stabilization of the glycerol monoalkyl ethers over a long period (peroxides, neck-in effect) [3]: stabilize the glycerol monoalkyl ethers over a long period

effect on stabilization of the glycerol monoalkyl ether by vitamin E ([3]; Experiments N and O): inhibit its stabilization by vitamin E
SMILES: CCCCCCCCCCCCCCCC(=O)OC[C@H](O)[C@H]1OC(=O)C(O)=C1O [ascorbyl palmitate, 6-0-palmitoyl-L-ascorbic acid]
stabilization of the glycerol monoalkyl ethers over a long period (peroxides, neck-in effect) [3]: does not stabilize the glycerol monoalkyl ethers

stabilizing effect [3]: exhibit the stabilizing effect
SMILES: Cc1c(C)c2c(c(C)c1O)CC[C@@](C)(CCC[C@H](C)CCC[C@H](C)CCCC(C)C)O2 [vitamin E, Alpha-tocopherol]
stabilization of the glycerol monoalkyl ethers over a long period (peroxides, neck-in effect) [3]: stabilize the glycerol monoalkyl ethers over a long period
